US10676462B2, “Quinoline derivative” (ONO PHARMACEUTICAL CO., LTD., priority 2013, dated 2020)

molecular target: T1, Human CYP2C8 (Homo sapiens, UniProt P10632); assay: Inhibitory activity of drug-metabolizing enzyme (human CYP2C8 inhibition effect); type: in vitro ADME; settings: E. coli-expressed CYP2C8, substrate Luciferin-ME, from inhibition rates at 1 and 10 μmol/L
T1 construct: E. coli-expressed liver microsome CYP2C8 (Cypex, 30 μmol/L); purchased Cypex; host or cells: E. coli
T1 sequence (P10632 1-490): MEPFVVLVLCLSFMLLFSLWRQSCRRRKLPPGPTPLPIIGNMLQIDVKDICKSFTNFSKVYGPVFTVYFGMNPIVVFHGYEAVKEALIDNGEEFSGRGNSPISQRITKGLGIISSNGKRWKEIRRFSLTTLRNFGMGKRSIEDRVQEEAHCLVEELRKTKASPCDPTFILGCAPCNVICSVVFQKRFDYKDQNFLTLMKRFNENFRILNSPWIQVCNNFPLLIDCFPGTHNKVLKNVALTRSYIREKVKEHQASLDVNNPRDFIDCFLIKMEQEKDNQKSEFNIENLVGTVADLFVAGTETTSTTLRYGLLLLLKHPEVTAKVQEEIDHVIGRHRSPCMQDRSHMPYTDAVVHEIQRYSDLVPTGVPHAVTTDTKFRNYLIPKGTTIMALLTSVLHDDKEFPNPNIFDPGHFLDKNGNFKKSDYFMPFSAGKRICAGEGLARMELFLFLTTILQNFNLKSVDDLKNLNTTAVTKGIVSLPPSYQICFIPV
Experimental: Biological Example 4: Measurement of Inhibitory Activity of Drug-Metabolizing Enzyme (Human CYP2C8 Inhibition Effect)
The reaction was carried out in a 384-well plate. As the positive control substance (CYP2C8: quercetin), a solution, which had been adjusted with DMSO to have 300 times higher concentration than the final concentration (CYP2C8: 22.5 and 225 μmol/L) and been 75-fold diluted with purified water containing 2.7% acetonitrile, was prepared (CYP2C8: 0.3 and 3 μmol/L). The test compounds were prepared to have a concentration of […] with DMSO, and then 75-fold diluted with purified water containing 2.7% acetonitrile to be 4 and 40 μmol/L. Then, a reaction mixture solution was prepared by addition of a potassium phosphate buffer (pH 7.4), magnesium chloride ([…]), substrate (CYP2C8: Luciferin-ME, 150 μmol/L), and E. coli-expressed liver microsome CYP2C8 (Cypex, 30 μmol/L) (the numerical values are final concentrations). The reaction was started by addition of 8 μL of this reaction mixture, 4 μL each of the test compound and the positive control solution which had been prepared as described above, and 4 μL of NADPH production system solution (5.2 mM NADP, 13.2 mM glucose-6-phosphate, 1.6 U/mL glucose-6-phosphate dehydrogenase) and incubation was carried out at 37° C. for 30 min. Thereafter, 16 μL of luciferase solution was added to stop the reaction and to allow luciferin to emit light, and the luminescence intensity of the reaction solution was measured. The inhibition rate is a reduction rate (inhibition rate) of the luminescence intensity when compared with the control in which the reaction was carried out by the addition of DMSO in place of the test compound solution. The inhibition rate was calculated from the following mathematical formula. Inhibition rate (%)=100−{(luminescence intensity of test compound−background luminescence intensity)/(luminescence intensity of control−background luminescence intensity)×100} [Math. 3]
The IC50 value was defined to be <1 μM when the inhibition rate at 1 μmol/L was not less than 50%; and >10 μM when the inhibition rate at 10 μmol/L was not more than 50%. The range between the above-mentioned range (not more than 50% at 1 μmol/L and not less than 50% at 10 μmol/L) was calculated using the following mathematical formula: IC50=(50−b)/a [Math.4] wherein a and b are the slope and intercept of the linear regression line: y=ax+b that passes through the two points: the concentration and the inhibition rate at 1 μmol/L and the concentration and the inhibition rate at 10 μmol/L.
The IC50 values of the comparative compounds and compounds of the present invention were measured using the measurement method described above.

IC50	SMILES
> 10 µM	O=C1CCCc2c1cc(C(=O)Nc1ccc(Oc3ccnc4cc(OCCCN5CCOCC5)ccc34)cn1)c(=O)n2-c1ccccc1 [Example 17(2), N-[5-({7-[3-(4-morpholinyl)propoxy]-4-quinolinyl}oxy)-2-pyridinyl]2,5-dioxo-1-phenyl-1,2,5,6,7,8-hexahydro-3-quinolinecarboxamide]
> 10 µM	COc1cc2nccc(Oc3ccc(NC(=O)c4cc5c(n(-c6ccccc6)c4=O)CC(C)(C)CC5=O)nc3)c2cc1OC [Example 5(1), N-{5-[(6,7-dimethoxy-4-quinolinyl)oxy]-2-pyridinyl}-7,7-dimethyl-2,5-dioxo-1-phenyl-1,2,5,6,7,8-hexahydro-3-quinolinecarboxamide]
> 10 µM	COc1cc2nccc(Oc3ccc(NC(=O)c4cc5c(n(-c6ccccc6)c4=O)CCCC5=O)c(C)c3)c2cc1OC [Example 23(2), N-{4-[(6,7-dimethoxy-4-quinolinyl)oxy]-2-methylphenyl}-2,5-dioxo-1-phenyl-1,2,5,6,7,8-hexahydro-3-quinolinecarboxamide]

SMILES	IC50
COc1cc2nccc(Oc3ccc(NC(=O)c4cc5c(n(-c6ccccc6)c4=O)CCCC5=O)nc3)c2cc1OC [Example 5, N-{5-[(6,7-dimethoxy-4-quinolinyl)oxy]-2-pyridinyl}-2,5-dioxo-1-phenyl-1,2,5,6,7,8-hexahydro-3-quinolinecarboxamide]	> 10 µM
